What all share (assay type): cell-based
One assay concerns the target T1, WEE1 (Homo sapiens, UniProt P30291+Q96SW2).
T1 construct: C-terminal ePL-tagged (DiscoverX, Fremont, CA) full-length WEE1 expression construct; expressed in transfected cells; host or cells: LentiX-HEK293T (Invitrogen), lentivirally transduced; the cells also over-express GSPT1-GN
The assay can be described thus: WEE1-ePL degradation assay (293T-LentiX, InCELL Hunter luminescence, 4 hr). Particulars: for DC50: LentiX-HEK293T cells expressing WEE1-ePL, 4 hr incubation, read-out: 293T-LentiX WEE1-ePL Degradation 4 hr EC50; for 293T-LentiX WEE1-ePL Degradation 4 hr YMin (%): lower limit of fit, % of DMSO control signal remaining. An outline of the steps:
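LentiX-HEK293T cells expressing C-terminally ePL-tagged full-length WEE1 plus non-degradable GSPT1-GN (G575N, N-terminal 158 aa truncated). Treated 4 h at 37 °C with a 10-point, 3-fold series from 1 or 10 µM, then read by InCELL Hunter luminescence. EC50 from four-parameter logistic fit, Ymax set by DMSO control.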

The test system of the next assay is MKN45 cells. In words: MKN45 cell proliferation assay (Cell-Titer-Glo, 120 hr). To be noted: for EC50: Homo sapiens, MKN-45, 120 h, read-out: MKN45 Cell Prolif. 120 hr EC50; for MKN45 Cell Prolif. 120 hr YMin (%): minimal percent of DMSO control observed. The gist of the method: (§1)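 MKN45 (400/well) and MDA-MB-231 (800/well) cells in RPMI with 10% FBS were exposed to 10-point half-log doses from 1 or 10 uM (0.1% DMSO) for 120 h at 37 °C. Viability was read by CellTiter-Glo luminescence. EC50 came from blank-subtracted, %DMSO four-parameter fits, with Ymin-obs as the lowest %DMSO observed.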

A further assay relates to MDA-MB-231 cells. The assay can be described thus: MDA-MB-231 cell proliferation assay (Cell-Titer-Glo, 120 hr). To be noted: for EC50: Homo sapiens, MDA-MB-231, 120 h, read-out: MDA-MB 231 Cell Prolif. 120 hr EC50; for MDA-MB 231 Cell Prolif. 120 hr YMin (%): minimal percent of DMSO control observed. An outline of the steps: as §1

The results in this text go back to US20250197374A1, “WEE1 DEGRADING COMPOUNDS AND USES THEREOF” (BRISTOL-MYERS SQUIBB COMPANY, priority 2023, published 2025).

For orientation: EC50 means the concentration that produces a half-maximal response.

Molecules are shown by their SMILES.

T1 sequence (P30291 whole entry): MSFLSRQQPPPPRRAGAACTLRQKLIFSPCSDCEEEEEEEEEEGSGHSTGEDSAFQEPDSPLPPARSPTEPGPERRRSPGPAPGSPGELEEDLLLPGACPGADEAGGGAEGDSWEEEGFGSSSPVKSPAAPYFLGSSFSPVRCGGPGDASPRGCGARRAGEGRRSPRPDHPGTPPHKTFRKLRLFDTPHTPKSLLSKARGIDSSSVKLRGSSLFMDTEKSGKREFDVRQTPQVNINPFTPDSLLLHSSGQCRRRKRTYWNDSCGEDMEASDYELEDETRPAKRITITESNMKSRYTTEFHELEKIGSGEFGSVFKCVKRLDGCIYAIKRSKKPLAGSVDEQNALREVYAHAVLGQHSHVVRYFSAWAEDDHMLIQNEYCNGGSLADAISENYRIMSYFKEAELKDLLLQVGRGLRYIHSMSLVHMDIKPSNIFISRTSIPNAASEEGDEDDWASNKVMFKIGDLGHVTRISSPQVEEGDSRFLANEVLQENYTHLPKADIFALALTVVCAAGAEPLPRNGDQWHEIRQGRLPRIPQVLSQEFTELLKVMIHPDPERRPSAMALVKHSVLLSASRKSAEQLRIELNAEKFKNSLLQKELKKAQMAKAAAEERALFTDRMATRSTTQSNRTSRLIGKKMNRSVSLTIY
T1 sequence (Q96SW2 whole entry): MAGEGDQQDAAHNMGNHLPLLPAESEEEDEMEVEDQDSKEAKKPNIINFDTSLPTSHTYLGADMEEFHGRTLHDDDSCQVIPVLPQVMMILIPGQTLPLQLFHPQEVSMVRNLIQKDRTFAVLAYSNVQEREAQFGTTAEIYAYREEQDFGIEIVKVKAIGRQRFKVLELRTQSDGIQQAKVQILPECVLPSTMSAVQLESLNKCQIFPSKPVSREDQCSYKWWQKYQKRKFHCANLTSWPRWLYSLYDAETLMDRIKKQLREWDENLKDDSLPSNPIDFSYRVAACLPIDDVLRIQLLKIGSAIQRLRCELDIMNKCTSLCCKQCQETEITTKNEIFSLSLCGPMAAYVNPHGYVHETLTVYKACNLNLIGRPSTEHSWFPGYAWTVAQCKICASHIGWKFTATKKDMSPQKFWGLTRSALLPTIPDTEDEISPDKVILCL
T1 sequence (Q16531 whole entry partner): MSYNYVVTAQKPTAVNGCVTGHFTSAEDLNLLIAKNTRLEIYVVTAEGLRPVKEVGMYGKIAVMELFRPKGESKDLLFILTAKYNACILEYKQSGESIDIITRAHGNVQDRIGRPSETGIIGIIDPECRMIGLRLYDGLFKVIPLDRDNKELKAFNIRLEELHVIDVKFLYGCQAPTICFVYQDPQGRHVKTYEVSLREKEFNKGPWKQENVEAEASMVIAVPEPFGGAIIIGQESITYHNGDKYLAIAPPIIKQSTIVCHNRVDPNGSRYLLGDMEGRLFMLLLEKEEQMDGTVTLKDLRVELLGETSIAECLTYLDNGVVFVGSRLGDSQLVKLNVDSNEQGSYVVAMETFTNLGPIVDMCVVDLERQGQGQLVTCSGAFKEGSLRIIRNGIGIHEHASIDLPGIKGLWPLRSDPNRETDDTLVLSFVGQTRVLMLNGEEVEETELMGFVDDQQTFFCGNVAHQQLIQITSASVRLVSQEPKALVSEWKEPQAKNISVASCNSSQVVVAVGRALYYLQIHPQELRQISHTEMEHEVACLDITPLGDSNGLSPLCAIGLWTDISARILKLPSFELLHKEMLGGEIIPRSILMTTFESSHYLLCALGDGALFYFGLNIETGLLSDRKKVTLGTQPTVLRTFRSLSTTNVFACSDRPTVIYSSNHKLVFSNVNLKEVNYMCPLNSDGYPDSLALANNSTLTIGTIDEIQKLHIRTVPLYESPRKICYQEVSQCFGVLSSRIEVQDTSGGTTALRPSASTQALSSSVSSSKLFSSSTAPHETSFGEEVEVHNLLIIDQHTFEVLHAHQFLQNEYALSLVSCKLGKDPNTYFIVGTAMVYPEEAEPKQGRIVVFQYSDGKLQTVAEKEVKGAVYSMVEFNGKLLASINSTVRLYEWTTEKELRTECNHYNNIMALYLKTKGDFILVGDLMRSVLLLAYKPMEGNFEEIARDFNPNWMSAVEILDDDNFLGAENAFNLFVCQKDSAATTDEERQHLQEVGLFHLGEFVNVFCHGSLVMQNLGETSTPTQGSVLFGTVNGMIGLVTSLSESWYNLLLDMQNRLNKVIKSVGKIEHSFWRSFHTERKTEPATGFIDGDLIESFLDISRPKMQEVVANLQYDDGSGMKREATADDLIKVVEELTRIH

Turning to `COC[C@@H]1CN(Cc2cc(F)c3nc(N4CCN(C(C)=O)C5(CC5)C4)ncc3c2)C[C@H]1Oc1ccc2c(c1)CN([C@H]1CCC(=O)NC1=O)C2=O` [Example 85, (3S)-3-(5-{[(3S,4S)-1-[(2-{4-acetyl-4,7-diazaspiro[2.5]octan-7-yl}-8-fluoroquinazolin-6-yl)methyl]-4-(methoxymethyl)pyrrolidin-3-yl]oxy}-1-oxo-2,3-dihydro-1H-isoindol-2-yl)piperidine-2,6-dione], at WEE1, the DC50 was 1 nM and the “293T-LentiX WEE1-ePL Degradation 4 hr YMin (%)” value worked out at 27.9%. Moreover, in the assay with MKN45 cells, the EC50 was 1 nM and the “MKN45 Cell Prolif. 120 hr YMin (%)” value is reported as 11.1%. Besides, in the assay on MDA-MB-231 cells, the EC50 is 22 nM and the “MDA-MB 231 Cell Prolif. 120 hr YMin (%)” value stood at 16.6%.

As to `COC[C@@H]1CN(Cc2cc(F)c3nc(N4CCN(C(C)=O)C5(COC5)C4)ncc3c2)C[C@H]1Oc1ccc2c(c1)CN([C@H]1CCC(=O)NC1=O)C2=O` [Example 86, (S)-3-(5-(((3S,4S)-1-((2-(5-acetyl-2-oxa-5,8-diazaspiro[3.5]nonan-8-yl)-8-fluoroquinazolin-6-yl)methyl)-4-(methoxymethyl)pyrrolidin-3-yl)oxy)-1-oxoisoindolin-2-yl)piperidine-2,6-dione], at WEE1, the DC50 turned out to be 3 nM and the “293T-LentiX WEE1-ePL Degradation 4 hr YMin (%)” value is on record as 28.5%. Besides, in the assay on MKN45 cells, the EC50 turned out to be 2 nM and the “MKN45 Cell Prolif. 120 hr YMin (%)” value was found to be 16.9%. Moreover, in the assay on MDA-MB-231 cells, the EC50 was found to be 51 nM and the “MDA-MB 231 Cell Prolif. 120 hr YMin (%)” value is listed as 18.4%.

As to `COC[C@@H]1CN(Cc2cc3ccc(N4CCN(C(C)=O)C5(COC5)C4)cc3cn2)C[C@H]1Oc1ccc2c(c1)CN([C@H]1CCC(=O)NC1=O)C2=O` [Example 87, (3S)-3-(5-{[(3S,4S)-1-[(7-{5-acetyl-2-oxa-5,8-diazaspiro[3.5]nonan-8-yl}isoquinolin-3-yl)methyl]-4-(methoxymethyl)pyrrolidin-3-yl]oxy}-1-oxo-2,3-dihydro-1H-isoindol-2-yl)piperidine-2,6-dione], on WEE1, the DC50 was determined as 11 nM and the “293T-LentiX WEE1-ePL Degradation 4 hr YMin (%)” value is given as 32.2%. In the assay on MKN45 cells, the EC50 was found to be 7 nM and the “MKN45 Cell Prolif. 120 hr YMin (%)” value is given as 9.7%. In the assay with MDA-MB-231 cells, the EC50 amounted to 112 nM and the “MDA-MB 231 Cell Prolif. 120 hr YMin (%)” value came to 31.8%.

Consider `COC[C@@H]1CN(Cc2cc3ccc(N4CCN(C(C)=O)C5(CC5)C4)cc3cn2)C[C@H]1Oc1ccc2c(c1)CN([C@H]1CCC(=O)NC1=O)C2=O` [Example 88, (3S)-3-(5-{[(3S,4S)-1-[(7-{4-acetyl-4,7-diazaspiro[2.5]octan-7-yl}isoquinolin-3-yl)methyl]-4-(methoxymethyl)pyrrolidin-3-yl]oxy}-1-oxo-2,3-dihydro-1H-isoindol-2-yl)piperidine-2,6-dione], for which, on WEE1, the DC50 came to 3 nM and the “293T-LentiX WEE1-ePL Degradation 4 hr YMin (%)” value came out at 28.3%. For the same molecule, in the assay with MKN45 cells, the EC50 was 1 nM and the “MKN45 Cell Prolif. 120 hr YMin (%)” value is given as 9.1%. In the assay with MDA-MB-231 cells, the EC50 came to 11 nM and the “MDA-MB 231 Cell Prolif. 120 hr YMin (%)” value was determined as 13.1%.

For the molecule `COC[C@@H]1CN(Cc2ccc3nc(N4CCN(C(C)=O)C5(CC5)C4)ccc3c2)C[C@H]1Oc1ccc2c(c1)CN([C@H]1CCC(=O)NC1=O)C2=O` [Example 89, (3S)-3-(5-{[(3S,4S)-1-[(2-{4-acetyl-4,7-diazaspiro[2.5]octan-7-yl}quinolin-6-yl)methyl]-4-(methoxymethyl)pyrrolidin-3-yl]oxy}-1-oxo-2,3-dihydro-1H-isoindol-2-yl)piperidine-2,6-dione], at WEE1, the DC50 came out at 1 nM and the “293T-LentiX WEE1-ePL Degradation 4 hr YMin (%)” value turned out to be 30.2%. For the same molecule, in the assay on MKN45 cells, the EC50 worked out at 1 nM and the “MKN45 Cell Prolif. 120 hr YMin (%)” value turned out to be 8.4%. Also, in the assay on MDA-MB-231 cells, the EC50 came out at 9 nM and the “MDA-MB 231 Cell Prolif. 120 hr YMin (%)” value stood at 16.8%.

`COC[C@@H]1CN(Cc2ccc3nc(N4CCN(C(C)=O)C5(COC5)C4)ccc3c2)C[C@H]1Oc1ccc2c(c1)CN([C@H]1CCC(=O)NC1=O)C2=O` [Example 90, (3S)-3-(5-{[(3S,4S)-1-[(2-{5-acetyl-2-oxa-5,8-diazaspiro[3.5]nonan-8-yl}quinolin-6-yl)methyl]-4-(methoxymethyl)pyrrolidin-3-yl]oxy}-1-oxo-2,3-dihydro-1H-isoindol-2-yl)piperidine-2,6-dione]: at WEE1, the DC50 worked out at 1 nM and the “293T-LentiX WEE1-ePL Degradation 4 hr YMin (%)” value was 21.0%. Also, in the assay with MKN45 cells, the EC50 is 2 nM and the “MKN45 Cell Prolif. 120 hr YMin (%)” value is 6.4%. Moreover, in the assay on MDA-MB-231 cells, the EC50 was determined as 42 nM and the “MDA-MB 231 Cell Prolif. 120 hr YMin (%)” value is on record as 27.2%.

With `COC[C@@H]1CN(Cc2cc(F)c3nc(C4CCOC(C)(C)C4)ncc3c2)C[C@H]1Oc1ccc2c(c1)CN([C@H]1CCC(=O)NC1=O)C2=O` (stereo partly drawn) [Example 91, (3S)-3-(5-{[(3S,4S)-1-{[2-(2,2-dimethyloxan-4-yl)-8-fluoroquinazolin-6-yl]methyl}-4-(methoxymethyl)pyrrolidin-3-yl]oxy}-1-oxo-2,3-dihydro-1H-isoindol-2-yl)piperidine-2,6-dione], at WEE1, the DC50 was determined as 4 nM and the “293T-LentiX WEE1-ePL Degradation 4 hr YMin (%)” value is recorded as 27.1%. Moreover, in the assay on MKN45 cells, the EC50 amounted to 2 nM and the “MKN45 Cell Prolif. 120 hr YMin (%)” value was 10.5%. In the assay on MDA-MB-231 cells, the EC50 was determined as 105 nM and the “MDA-MB 231 Cell Prolif. 120 hr YMin (%)” value is on record as 9.6%.

For the molecule `COC[C@@H]1CN(Cc2cc(F)c3nc(N4CCN(C(C)=O)C5(CC5)C4)ccc3c2)C[C@H]1Oc1ccc2c(c1)CN([C@H]1CCC(=O)NC1=O)C2=O` [Example 92, (3S)-3-(5-{[(3S,4S)-1-[(2-{4-acetyl-4,7-diazaspiro[2.5]octan-7-yl}-8-fluoroquinolin-6-yl)methyl]-4-(methoxymethyl)pyrrolidin-3-yl]oxy}-1-oxo-2,3-dihydro-1H-isoindol-2-yl)piperidine-2,6-dione], on WEE1, the DC50 stood at 1 nM and the “293T-LentiX WEE1-ePL Degradation 4 hr YMin (%)” value stood at 28.7%. In addition, in the assay on MKN45 cells, the concentration for a half-maximal effect (EC50) came out at 1 nM and the “MKN45 Cell Prolif. 120 hr YMin (%)” value is recorded as 10.9%. For the same molecule, in the assay with MDA-MB-231 cells, the EC50 worked out at 14 nM and the “MDA-MB 231 Cell Prolif. 120 hr YMin (%)” value was found to be 21.4%.

As for `COC[C@@H]1CN(Cc2cc(F)c3nc(N4CCN(C(C)=O)C5(COC5)C4)ccc3c2)C[C@H]1Oc1ccc2c(c1)CN([C@H]1CCC(=O)NC1=O)C2=O` [Example 93, (3S)-3-(5-{[(3S,4S)-1-[(2-{5-acetyl-2-oxa-5,8-diazaspiro[3.5]nonan-8-yl}-8-fluoroquinolin-6-yl)methyl]-4-(methoxymethyl)pyrrolidin-3-yl]oxy}-1-oxo-2,3-dihydro-1H-isoindol-2-yl)piperidine-2,6-dione], at WEE1, the DC50 amounted to 1 nM and the “293T-LentiX WEE1-ePL Degradation 4 hr YMin (%)” value is 21.9%. In addition, in the assay on MKN45 cells, the 50% effective concentration (EC50) is 1 nM and the “MKN45 Cell Prolif. 120 hr YMin (%)” value worked out at 7.9%. In addition, in the assay on MDA-MB-231 cells, the concentration for a half-maximal effect (EC50) stood at 69 nM and the “MDA-MB 231 Cell Prolif. 120 hr YMin (%)” value was found to be 52.5%.

As to `COC[C@@H]1CN(Cc2ccc3nc(N4CCN(C(C)=O)C5(CC5)C4)ncc3c2)C[C@H]1Oc1ccc2c(c1)CN([C@H]1CCC(=O)NC1=O)C2=O` [Example 94, (3S)-3-(5-{[(3S,4S)-1-[(2-{4-acetyl-4,7-diazaspiro[2.5]octan-7-yl}quinazolin-6-yl)methyl]-4-(methoxymethyl)pyrrolidin-3-yl]oxy}-1-oxo-2,3-dihydro-1H-isoindol-2-yl)piperidine-2,6-dione], at WEE1, the DC50 stood at 1 nM and the “293T-LentiX WEE1-ePL Degradation 4 hr YMin (%)” value is 26.4%. In the assay on MKN45 cells, the EC50 is 2 nM and the “MKN45 Cell Prolif. 120 hr YMin (%)” value worked out at 8.5%. For the same molecule, in the assay with MDA-MB-231 cells, the EC50 was 16 nM and the “MDA-MB 231 Cell Prolif. 120 hr YMin (%)” value was 16.0%.

As for `COC[C@@H]1CN(Cc2ccc3cc(N4CCOCC4)cnc3c2)C[C@H]1Oc1ccc2c(c1)CN([C@H]1CCC(=O)NC1=O)C2=O` [Example 102, (3S)-3-(5-{[(3S,4S)-4-(methoxymethyl)-1-{[3-(morpholin-4-yl)quinolin-7-yl]methyl}pyrrolidin-3-yl]oxy}-1-oxo-2,3-dihydro-1H-isoindol-2-yl)piperidine-2,6-dione], on WEE1, the DC50 came to 3 nM and the “293T-LentiX WEE1-ePL Degradation 4 hr YMin (%)” value was found to be 43.7%. In the assay with MKN45 cells, the EC50 worked out at 145 nM and the “MKN45 Cell Prolif. 120 hr YMin (%)” value is 49.6%. In the assay with MDA-MB-231 cells, the EC50 was determined as 1020 nM and the “MDA-MB 231 Cell Prolif. 120 hr YMin (%)” value came to 90.7%.

As for `COC[C@@H]1CN(Cc2cc(F)c3cc(N4CCOCC4)cnc3c2)C[C@H]1Oc1ccc2c(c1)CN([C@H]1CCC(=O)NC1=O)C2=O` [Example 103, (3S)-3-(5-{[(3S,4S)-1-{[5-fluoro-3-(morpholin-4-yl)quinolin-7-yl]methyl}-4-(methoxymethyl)pyrrolidin-3-yl]oxy}-1-oxo-2,3-dihydro-1H-isoindol-2-yl)piperidine-2,6-dione], at WEE1, the DC50 worked out at 1 nM and the “293T-LentiX WEE1-ePL Degradation 4 hr YMin (%)” value was determined as 32.3%. In the assay with MKN45 cells, the concentration for a half-maximal effect (EC50) was 29 nM and the “MKN45 Cell Prolif. 120 hr YMin (%)” value was 28.5%. In the assay on MDA-MB-231 cells, the EC50 is 5 nM and the “MDA-MB 231 Cell Prolif. 120 hr YMin (%)” value turned out to be 82.3%.
